Experimental data reported in patent US6348445B1, “Biologically active peptides with reduced toxicity in animals and a method for preparing same” (priority 1992, dated 2002).
Where no end group is shown, it is not given here.

What was measured:
[1] = tested on: P. aeruginosa strain ATCC 27853; type: cell-based; settings: ATCC 27853
Summary of the method: (§1)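 Broth microdilution per NCCLS M7-T2: final peptide levels 0.25 to 256 μg/ml (twofold steps), inoculum 1-5×10^5 CFUs/ml in full-strength Mueller Hinton broth. MIC read as lowest concentration leaving the well clear after 16-20 hours at 37° C.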

[2] = tested on: E. coli ATCC strain 25922; assay: Minimal Inhibitory Concentration, microtiter broth dilution; type: cell-based; settings: ATCC strain 25922
Summary of the method: as §1

S. aureus ATCC 29213 = type: cell-based; settings: ATCC 29213
[3] = MTD and LD50, single intravenous administration; type: in vivo, mice
Description: Determinations of a maximal tolerated dose (MTD) of a single intravenous (i.v.) administration or intraperitoneal (i.p.) administration of MSI-344 or MSI-1857 in 100 CD-1®BR mice were done. The MTD of a single intravenous (i.v.) administration was 10 mg/kg for MSI-344 and 60 mg/kg for MSI-1857. The MTD of a single intraperitoneal (i.p.) administration was less than 20 mg/kg for MSI-344 and between 50 and 100 mg/kg for MSI-1857.
To determine estimates of MTDs and LD50s of MSI-344 and MSI-1857 administered intravenously or intraperitoneally as a single bolus in mice.
A 5 mg/mL solution of MSI-344 was made in saline (0.9% sodium chloride injection USP, Abbott, North Chicago, Ill.) corrected for peptide content. Solutions of MSI-344 at concentrations of 4, 3, 2, 1.5, 1, and 0.5 mg/mL were made by diluting the 5 mg/mL solution using saline as diluent. (Errors were made in solution preparation of the 4, 3, and 2 mg/mL solutions and results from groups with animals doses with these solutions, i.e. groups 12, 13, and 14, were eliminated from study analysis). A 20 mg/mL solution of MSI-1857 was made in saline. Solutions of MSI-1857 at concentrations of 15, 10, 8, 6, and 5 mg/mL were made by diluting the 20 mg/mL solution using saline as diluent.
Another 5 mg/mL solution of MSI-344 was made in saline corrected for peptide content. Solutions of 4, 3 and 2 mg/mL were made by diluting the 5 mg/mL solution using saline as diluent. A 15 mg/mL solution of MSI-1857 in saline was made corrected for peptide content. A 10 mg/mL solution was made by diluting the 15 mg/mL solution with saline.
Mice (four mice per dose group) were intravenously or intraperitoneally administered a single bolus of MSI-344 or MSI-1857 using an injection volume of 10 mL/kg of the appropriate solution concentration. If the first two mice in a group died immediately (within 10 secs) after administration of a dose then no other mice injected with this dose of this compound (for ethical reasons). Survival was monitored daily for at least eight days post-administration. Study designs are presented in Tables IX and X. Toxicity Study # 262 was a supplement to Toxicity Study #261.

[4] = Tox Study #261 group 2, 20 mg/kg IV, 2 injected
[5] = Tox Study #261 group 3, 15 mg/kg IV, 2 injected
[6] = Tox Study #261 group 4, 10 mg/kg IV, 4 injected
[7] = Tox Study #261 group 5, 5 mg/kg IV, 4 injected

GIGKFLKKAKKFGKAFVKILKK [MSI-344]
MIC P. aeruginosa ATCC 27853 [1]: 16 µg/mL | MIC E. coli ATCC 25922 [2]: 8 µg/mL | MIC S. aureus ATCC 29213 (S. aureus ATCC 29213): 128 µg/mL | No. of Survivors Day 1 [3, 4]: 0 | No. of Survivors Day 2 [3, 4]: 0 | No. of Survivors Day 3 [3, 4]: 0 | No. of Survivors Day 4 [3, 4]: 0 | No. of Survivors Day 5 [3, 4]: 0 | No. of Survivors Day 6 [3, 4]: 0 | No. of Survivors Day 7 [3, 4]: 0 | No. of Survivors Day 8 [3, 4]: 0 | No. of Survivors Day 1 [3, 5]: 0 | No. of Survivors Day 2 [3, 5]: 0 | No. of Survivors Day 3 [3, 5]: 0 | No. of Survivors Day 4 [3, 5]: 0 | No. of Survivors Day 5 [3, 5]: 0 | No. of Survivors Day 6 [3, 5]: 0 | No. of Survivors Day 7 [3, 5]: 0 | No. of Survivors Day 8 [3, 5]: 0 | No. of Survivors Day 1 [3, 6]: 4 | No. of Survivors Day 2 [3, 6]: 4 | No. of Survivors Day 3 [3, 6]: 4 | No. of Survivors Day 4 [3, 6]: 4 | No. of Survivors Day 5 [3, 6]: 4 | No. of Survivors Day 6 [3, 6]: 4 | No. of Survivors Day 7 [3, 6]: 4 | No. of Survivors Day 8 [3, 6]: 4 | No. of Survivors Day 1 [3, 7]: 4 | No. of Survivors Day 2 [3, 7]: 4 | No. of Survivors Day 3 [3, 7]: 4 | No. of Survivors Day 4 [3, 7]: 4 | No. of Survivors Day 5 [3, 7]: 4 | No. of Survivors Day 6 [3, 7]: 4 | No. of Survivors Day 7 [3, 7]: 4 | No. of Survivors Day 8 [3, 7]: 4 | LD50 ([3]; mouse, in vivo, iv, CD-1 mice, estimated from dose response curves): 12.5 mg/kg | MTD ([3]; mouse, in vivo, iv, CD-1 mice, read-out: MTD of a single intravenous (i.v.) administration): 10 mg/kg
